In US7977481B2, “Pyrimidinyl-thiophene kinase modulators” (SGX Pharmaceuticals, Inc., priority 2005, dated 2011):

Columns and labels:
[1] = test system: HCT116 cells; test: 96-well XTT cell survival assay (AurA XTT); assay type: cell-based; conditions: Homo sapiens, HCT-116, 72 hours
Description: HCT116 cells were maintained in McCoy's 5a Medium supplemented with 10% fetal bovine serum (FBS) 2 mM L-Glutamine and 100 units penicillin/100 μg streptomycin, at 37° C. in 5% CO2
Compounds were tested in the following assays in duplicate.
96-well XTT assay: Cells were grown in growth media containing various concentrations of compounds (duplicates) on a 96-well flat bottom plate for 72 hours at 37° C. in 5% CO2. The starting cell number was 5000 cells per well and volume was 120 μl. At the end of the 72-hour incubation, 40 μl of XTT labeling mixture (50:1 solution of sodium 3′-[1-(phenylaminocarbonyl)-3,4-tetrazolium]-bis(4-methoxy-6-nitro) benzene sulfonic acid hydrate and Electron-coupling reagent: PMS (N-methyl dibenzopyrazine methyl sulfate) were added to each well of the plate. After an additional 2-6 hours […] with a spectrophotometer.

[2] = target: T1, MET kinase (Homo sapiens, UniProt P08581); test: MET Luminescence-Based ATP Depletion Enzyme Assay; assay type: biochemical; conditions: 10 μM ATP
T1 construct: expressing the kinase domain of human Met; 6x Histidine tag (cleaved yes); made in house; host or cells: Sf9 insect cells
Description: MET Luminescence-Based ATP Depletion Enzyme Assay
Materials: Poly Glu-Tyr (4:1) substrate (Sigma Cat#P-0275), ATP (Sigma Cat#A-3377, FW=551), HEPES buffer, pH 7.5, Bovine serum albumin (BSA) (Roche 92423420), MgCl2, Staurosporine (Streptomyces sp. Sigma Cat#85660-1MG), white Costar 384-well flat-bottom plate (VWR Cat#29444-088). MET kinase (see below), Kinase-Glo™ (Promega Cat#V6712).
Stock Solutions: 10 mg/ml poly Glu-Tyr in water, stored at −20° C.; 100 mM HEPES buffer, pH 7.5 (5 ml 1M stock+45 ml miliQH2O); 10 mM ATP (5.51 mg/ml in dH2O) stored at −20° C. (diluted 50 μl into total of 10 ml miliQH2O daily=50 μM ATP working stock); 1% BSA (1 g BSA in 100 ml 0.1M HEPES, pH 7.5, stored at −20° C.), 100 mM MgCl2; 200 μM Staurosporine, 2× Kinase-Glo™ reagent (made fresh or stored at −20° C.).
Standard Assay Setup for 384-well format (20 μl kinase reaction, 40 μl detection reaction): 10 mM MgCl2; 0.3 mg/ml poly Glu-Tyr; 0.1% BSA; 1 μl test compound (in DMSO); 0.4 μg/ml MET kinase; 10 μM ATP; 100 mM HEPES buffer. Positive controls contained DMSO with no test compound. Negative controls contained 10 μM staurosporine. The kinase reactions were initiated at time t=0 by the addition of ATP. Kinase reactions were incubated at 21° C. for 60 min, then 20 μl of Kinase-Glo™ reagent were added to each well to quench the kinase reaction and initiate the luminescence reaction. After a 20 min incubation at 21° C., the luminescence was detected in a plate-reading luminometer.
The cell pellets produced from half of a 12 L Sf9 insect cell culture expressing the kinase domain of human Met were resuspended in a buffer containing 50 mM Tris-HCl pH 7.7 and 250 mM NaCl, in a volume of approximately 40 ml per 1 L of original culture. One tablet of Roche Complete, EDTA-free protease inhibitor cocktail (Cat#1873580) was added per 1 L of original culture. The suspension was stirred for 1 hour at 4° C. Debris was removed by centrifugation for 30 minutes at 39,800×g at 4° C. The supernatant was decanted into a 500 ml beaker and 10 ml of 50% slurry of Qiagen Ni-NTA Agarose (Cat#30250) that had been pre-equilibrated in 50 mM Tris-HCl pH 7.8, 50 mM NaCl, 10% Glycerol, 10 mM Imidazole, and 10 mM Methionine, were added and stirred for 30 minutes at 4° C. The sample was then poured into a drip column at 4° C. and washed with 10 column volumes of 50 mM Tris-HCl pH 7.8, 500 mM NaCl, 10% Glycerol, 10 mM Imidazole, and 10 mM Methionine. The protein was eluted using a step gradient with two column volumes each of the same buffer containing 50 mM, 200 mM, and 500 mM Imidazole, sequentially. The 6× Histidine tag was cleaved overnight using 40 units of TEV protease (Invitrogen Cat#10127017) per 1 mg of protein while dialyzing in 50 mM Tris-HCl pH 7.8, 500 mM NaCl, 10% Glycerol, 10 mM Imidazole, and 10 mM Methionine at 4° C. The 6× Histidine tag was removed by passing the sample over a Pharmacia 5 ml IMAC column (Cat#17-0409-01) charged with Nickel and equilibrated in 50 mM Tris-HCl pH 7.8, 500 mM NaCl, 10% Glycerol, 10 mM Imidazole, and 10 mM Methionine. The cleaved protein bound to the Nickel column at a low affinity and was eluted with a step gradient. The step gradient was run with 15% and then 80% of the B-side (A-side=50 mM Tris-HCl pH 7.8, 500 mM NaCl, 10% Glycerol, 10 mM Imidazole, and 10 mM Methionine; B-side=50 mM Tris-HCl pH 7.8, 500 mM NaCl, 10% Glycerol, 500 mM Imidazole, and 10 mM Methionine) for 4 column volumes each. The Met protein eluted in the first step (15%), whereas the non-cleaved Met and the cleaved Histidine tag eluted in the 80% fractions. The 15% fractions were pooled after SDS-PAGE gel analysis confirmed the presence of cleaved Met; further purification was done by gel filtration chromatography on an Amersham Biosciences HiLoad 16/60 Superdex 200 prep grade (Cat#17-1069-01) equilibrated in 50 mM Tris-HCl pH 8.5, 150 mM NaCl, 10% Glycerol and 5 mM DTT. […]

T1 sequence (P08581 1078-1345 limits assumed): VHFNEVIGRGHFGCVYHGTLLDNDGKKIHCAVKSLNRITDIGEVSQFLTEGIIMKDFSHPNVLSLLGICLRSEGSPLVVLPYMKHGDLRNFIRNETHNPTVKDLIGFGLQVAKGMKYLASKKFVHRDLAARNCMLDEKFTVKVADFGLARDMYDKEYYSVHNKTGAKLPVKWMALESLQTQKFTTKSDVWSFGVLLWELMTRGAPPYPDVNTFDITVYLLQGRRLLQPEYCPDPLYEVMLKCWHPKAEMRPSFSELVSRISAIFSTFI

| SMILES | IC50 [2] | IC50 [1] |
| --- | --- | --- |
| CCN(CCC#N)S(=O)(=O)c1ccc(-c2ccnc(Nc3cccc(C)c3)n2)s1 | < 1 µM | 1 to 5 µM |
| COc1ccc(Nc2nccc(-c3ccc(Br)s3)n2)cc1OC | 1 to 5 µM | – |
| CCN(CCC#N)S(=O)(=O)c1ccc(-c2ccnc(Nc3cccc(C(C)O)c3)n2)s1 (stereo not shown) | < 1 µM | 1 to 5 µM |
| CCC1CCCCN1S(=O)(=O)c1ccc(-c2ccnc(Nc3cccc(C(C)O)c3)n2)s1 (stereo not shown) | < 1 µM | – |
| COc1ccc(Nc2nccc(-c3ccc(Br)s3)n2)cc1C(=O)N(C)C | 1 to 5 µM | 1 to 5 µM |
| O=C(c1cccc(Nc2nccc(-c3ccc(Br)s3)n2)c1)N1CCN(CCO)CC1 | 1 to 5 µM | 1 to 5 µM |
| CN(Cc1ccccc1)C(=O)c1ccc(-c2ccnc(Nc3ccc(CCO)cc3)n2)s1 | – | 1 to 5 µM |
| CN(C)C(=O)c1cccc(Nc2nccc(-c3ccc(Br)s3)n2)c1 | 1 to 5 µM | – |
| CCC(=O)Nc1ccc(-c2ccnc(Nc3cccc(C)c3)n2)s1 | 1 to 5 µM | 1 to 5 µM |
| CC(O)c1cccc(Nc2nccc(-c3ccc(S(=O)(=O)N(C)C)s3)n2)c1 (stereo not shown) | 1 to 5 µM | 1 to 5 µM |
| CC(O)c1cccc(Nc2nccc(-c3ccc(-c4cccnc4)s3)n2)c1 (stereo not shown) | 1 to 5 µM | 1 to 5 µM |
| CCN(CCC#N)C(=O)c1ccc(-c2ccnc(Nc3cccc(C(C)O)c3)n2)s1 (stereo not shown) | – | < 1 µM |

The next lines start with results.

| IC50 [2] | SMILES | IC50 [1] |
| --- | --- | --- |
| < 1 µM | C[C@@H](NC(=O)c1ccc(-c2ccnc(Nc3cccc(CN4CCC(O)CC4)c3)n2)s1)c1ccccc1 | < 1 µM |
| < 1 µM | CC(O)c1cccc(Nc2nccc(-c3ccc(S(=O)(=O)Cc4ccccc4)s3)n2)c1 (stereo not shown) | – |
| < 1 µM | C[C@@H](NC(=O)c1ccc(-c2ccnc(Nc3cccc(CN4CCN(CCO)CC4)c3)n2)s1)c1ccccc1 | < 1 µM |
| 1 to 5 µM | O=C(NCc1ccccc1)c1ccc(-c2ccnc(Nc3ccc(CCO)cc3)n2)s1 | 1 to 5 µM |
| 1 to 5 µM | Brc1ccc(-c2ccnc(Nc3cccc(CN4CCOCC4)c3)n2)s1 | – |
| 1 to 5 µM | OC1CCN(Cc2cccc(Nc3nccc(-c4ccc(CNc5ccccc5Cl)s4)n3)c2)CC1 | – |
